Source: patent US11098055B2, “Ester ACC inhibitors and uses thereof” (Gilead Apollo, LLC, priority 2015, dated 2021)

How the values were obtained:
fACC2 = fACC2 (UniProt Q00955); assay: In vitro ACC2 inhibition assay (ADP-Glo), fungal ACC2; type: biochemical; settings: Table 2b (additional results)
How it was run: (§1)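 ADP-Glo luminescent ADP detection with 5 nM ACC2, 20 μM ATP, 20 μM acetyl-CoA, 12 mM NaHCO3, 2 mM DTT, 5% DMSO; compound (30 μM-0.00051 μM, 11 points) preincubated 15 min, reaction 60 min at room temperature. Percent inhibition against DMSO and positive controls; IC50 by four-parameter nonlinear fit.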

hACC2 = hACC2 (Homo sapiens, UniProt O00763); assay: In vitro ACC2 inhibition assay (ADP-Glo), human ACC2; type: biochemical; settings: Table 2b (additional results)
hACC2, sequence (O00763 whole entry): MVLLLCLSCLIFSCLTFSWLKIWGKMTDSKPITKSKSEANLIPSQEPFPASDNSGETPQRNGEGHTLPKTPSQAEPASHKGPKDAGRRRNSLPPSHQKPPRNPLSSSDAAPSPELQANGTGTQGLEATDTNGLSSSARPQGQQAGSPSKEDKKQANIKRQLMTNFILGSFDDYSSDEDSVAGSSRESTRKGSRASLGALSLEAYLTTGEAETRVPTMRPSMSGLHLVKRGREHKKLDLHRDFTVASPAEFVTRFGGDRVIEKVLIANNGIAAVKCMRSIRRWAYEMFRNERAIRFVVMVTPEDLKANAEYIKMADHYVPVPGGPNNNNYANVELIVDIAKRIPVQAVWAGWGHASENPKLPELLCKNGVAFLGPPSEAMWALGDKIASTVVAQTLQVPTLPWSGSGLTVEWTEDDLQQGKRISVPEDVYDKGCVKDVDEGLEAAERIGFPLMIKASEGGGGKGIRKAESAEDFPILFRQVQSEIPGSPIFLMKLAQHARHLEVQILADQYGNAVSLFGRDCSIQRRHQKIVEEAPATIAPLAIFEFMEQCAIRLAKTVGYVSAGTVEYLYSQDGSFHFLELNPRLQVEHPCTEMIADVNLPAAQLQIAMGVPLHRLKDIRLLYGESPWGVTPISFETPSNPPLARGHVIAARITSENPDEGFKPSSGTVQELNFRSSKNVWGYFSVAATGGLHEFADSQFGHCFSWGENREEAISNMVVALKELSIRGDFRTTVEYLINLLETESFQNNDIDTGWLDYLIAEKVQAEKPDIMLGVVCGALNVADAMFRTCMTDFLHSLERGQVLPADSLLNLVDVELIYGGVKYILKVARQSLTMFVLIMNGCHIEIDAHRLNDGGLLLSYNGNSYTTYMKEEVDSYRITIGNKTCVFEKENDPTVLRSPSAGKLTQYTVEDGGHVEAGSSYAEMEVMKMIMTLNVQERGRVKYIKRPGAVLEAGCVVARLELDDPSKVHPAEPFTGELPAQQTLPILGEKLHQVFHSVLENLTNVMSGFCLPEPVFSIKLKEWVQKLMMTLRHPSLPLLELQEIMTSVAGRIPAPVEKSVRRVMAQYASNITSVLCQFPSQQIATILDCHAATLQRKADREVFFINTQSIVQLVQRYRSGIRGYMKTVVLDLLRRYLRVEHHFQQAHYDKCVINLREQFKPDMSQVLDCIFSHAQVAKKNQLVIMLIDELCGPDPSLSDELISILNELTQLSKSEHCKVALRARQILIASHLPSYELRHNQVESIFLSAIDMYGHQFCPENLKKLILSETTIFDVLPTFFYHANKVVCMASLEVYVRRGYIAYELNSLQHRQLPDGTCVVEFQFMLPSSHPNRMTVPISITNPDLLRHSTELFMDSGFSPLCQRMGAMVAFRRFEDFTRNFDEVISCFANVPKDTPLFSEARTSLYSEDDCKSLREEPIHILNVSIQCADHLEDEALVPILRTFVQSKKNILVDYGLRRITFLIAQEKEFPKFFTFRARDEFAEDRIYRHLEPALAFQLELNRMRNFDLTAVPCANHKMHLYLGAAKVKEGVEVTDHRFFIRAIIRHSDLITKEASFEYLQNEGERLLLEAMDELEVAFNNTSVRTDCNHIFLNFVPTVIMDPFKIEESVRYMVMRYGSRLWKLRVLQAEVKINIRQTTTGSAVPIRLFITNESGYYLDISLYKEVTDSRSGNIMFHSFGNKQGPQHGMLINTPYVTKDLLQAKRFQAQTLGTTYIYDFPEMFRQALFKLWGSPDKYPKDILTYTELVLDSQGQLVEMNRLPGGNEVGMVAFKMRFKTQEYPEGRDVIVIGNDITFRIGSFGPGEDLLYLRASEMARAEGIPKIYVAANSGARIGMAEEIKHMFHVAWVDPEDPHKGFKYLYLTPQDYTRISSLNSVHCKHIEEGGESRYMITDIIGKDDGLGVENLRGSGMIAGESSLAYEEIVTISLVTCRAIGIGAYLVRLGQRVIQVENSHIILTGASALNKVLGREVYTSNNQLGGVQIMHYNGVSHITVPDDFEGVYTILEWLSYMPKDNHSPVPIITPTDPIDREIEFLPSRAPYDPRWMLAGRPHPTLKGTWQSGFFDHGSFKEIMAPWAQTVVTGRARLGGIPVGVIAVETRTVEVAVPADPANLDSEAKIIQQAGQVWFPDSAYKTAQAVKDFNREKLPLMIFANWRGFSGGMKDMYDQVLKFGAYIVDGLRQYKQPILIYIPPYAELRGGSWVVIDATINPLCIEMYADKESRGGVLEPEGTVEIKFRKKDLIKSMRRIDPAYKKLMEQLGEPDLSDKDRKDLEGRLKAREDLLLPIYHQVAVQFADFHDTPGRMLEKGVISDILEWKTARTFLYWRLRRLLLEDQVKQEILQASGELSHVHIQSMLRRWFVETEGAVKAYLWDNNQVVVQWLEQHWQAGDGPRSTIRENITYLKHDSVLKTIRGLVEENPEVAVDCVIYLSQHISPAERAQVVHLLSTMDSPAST
How it was run: as §1

fACC2, sequence (Q00955 whole entry): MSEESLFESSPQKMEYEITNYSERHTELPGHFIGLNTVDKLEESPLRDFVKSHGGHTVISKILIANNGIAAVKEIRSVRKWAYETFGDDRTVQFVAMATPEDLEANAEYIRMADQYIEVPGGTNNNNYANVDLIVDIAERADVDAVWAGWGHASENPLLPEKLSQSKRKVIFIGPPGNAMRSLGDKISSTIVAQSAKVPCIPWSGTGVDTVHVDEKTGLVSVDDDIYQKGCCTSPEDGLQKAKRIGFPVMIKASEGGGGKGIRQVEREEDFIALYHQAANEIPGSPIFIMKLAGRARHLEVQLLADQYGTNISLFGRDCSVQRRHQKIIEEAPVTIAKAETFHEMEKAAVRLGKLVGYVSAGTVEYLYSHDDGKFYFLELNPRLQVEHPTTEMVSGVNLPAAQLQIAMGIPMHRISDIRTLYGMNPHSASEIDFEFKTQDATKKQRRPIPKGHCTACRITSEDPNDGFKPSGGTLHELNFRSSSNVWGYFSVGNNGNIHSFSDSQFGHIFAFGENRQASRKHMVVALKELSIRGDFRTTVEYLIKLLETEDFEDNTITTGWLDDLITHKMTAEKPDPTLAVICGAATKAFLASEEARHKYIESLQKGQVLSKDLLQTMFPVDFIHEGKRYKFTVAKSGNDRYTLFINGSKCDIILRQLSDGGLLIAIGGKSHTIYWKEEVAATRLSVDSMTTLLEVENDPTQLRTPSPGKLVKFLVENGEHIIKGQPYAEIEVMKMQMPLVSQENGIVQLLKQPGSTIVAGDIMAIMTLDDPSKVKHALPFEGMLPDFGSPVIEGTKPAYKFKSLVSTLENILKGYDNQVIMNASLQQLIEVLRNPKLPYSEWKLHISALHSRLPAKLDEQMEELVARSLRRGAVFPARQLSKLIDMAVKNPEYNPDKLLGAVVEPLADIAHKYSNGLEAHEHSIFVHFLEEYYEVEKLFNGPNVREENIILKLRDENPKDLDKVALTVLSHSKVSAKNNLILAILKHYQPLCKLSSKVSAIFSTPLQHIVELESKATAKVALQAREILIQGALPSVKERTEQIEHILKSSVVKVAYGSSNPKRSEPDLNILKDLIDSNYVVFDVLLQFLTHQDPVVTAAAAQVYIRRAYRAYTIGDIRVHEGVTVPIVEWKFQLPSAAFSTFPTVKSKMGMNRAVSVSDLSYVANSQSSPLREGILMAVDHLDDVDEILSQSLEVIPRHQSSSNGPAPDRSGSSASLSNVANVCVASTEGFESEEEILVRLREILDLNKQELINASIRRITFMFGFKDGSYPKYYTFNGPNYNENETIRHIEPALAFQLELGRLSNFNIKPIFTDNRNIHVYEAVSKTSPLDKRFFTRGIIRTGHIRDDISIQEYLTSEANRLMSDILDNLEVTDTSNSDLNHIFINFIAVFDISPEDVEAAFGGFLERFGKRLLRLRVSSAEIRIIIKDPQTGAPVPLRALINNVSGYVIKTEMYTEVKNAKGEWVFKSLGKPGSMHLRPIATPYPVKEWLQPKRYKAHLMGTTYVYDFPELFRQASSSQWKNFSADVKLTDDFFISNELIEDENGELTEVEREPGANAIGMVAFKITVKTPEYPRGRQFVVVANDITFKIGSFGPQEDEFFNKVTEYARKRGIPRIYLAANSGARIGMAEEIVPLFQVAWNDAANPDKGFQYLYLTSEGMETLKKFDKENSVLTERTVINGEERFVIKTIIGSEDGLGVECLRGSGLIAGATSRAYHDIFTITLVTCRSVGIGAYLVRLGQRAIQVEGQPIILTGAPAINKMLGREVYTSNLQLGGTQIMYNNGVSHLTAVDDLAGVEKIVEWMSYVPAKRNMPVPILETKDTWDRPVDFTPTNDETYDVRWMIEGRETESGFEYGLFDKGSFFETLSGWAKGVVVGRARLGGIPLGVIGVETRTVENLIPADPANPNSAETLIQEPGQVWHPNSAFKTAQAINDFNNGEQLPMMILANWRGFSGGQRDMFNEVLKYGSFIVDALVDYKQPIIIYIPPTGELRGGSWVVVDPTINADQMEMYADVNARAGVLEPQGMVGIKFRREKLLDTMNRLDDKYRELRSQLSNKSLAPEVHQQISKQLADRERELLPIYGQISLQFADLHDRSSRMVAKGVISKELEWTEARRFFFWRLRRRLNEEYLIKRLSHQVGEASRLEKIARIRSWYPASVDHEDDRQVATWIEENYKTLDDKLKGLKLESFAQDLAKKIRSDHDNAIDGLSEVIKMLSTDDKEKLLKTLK

## CCOC(=O)c1sc2c(c1C)c(=O)n(C(C)(C)C(=O)NC(C)C)c(=O)n2C[C@H](OC[C@H](C)C#N)c1cc(F)ccc1OC [Compound I-34, ethyl 1-((R)-2-((R)-2-cyanopropoxy)-2-(5-fluoro-2-methoxyphenyl)ethyl)-3-(1-(isopropylamino)-2-methyl-1-oxopropan-2-yl)-5-methyl-2,4-dioxo-1,2,3,4-tetrahydrothieno[2,3-d]pyrimidine-6-carboxylate]
fACC2
  IC50: 0.3 to 3 nM
hACC2
  IC50: 10 to 40 nM

## CCOC(=O)c1sc2c(c1C)c(=O)n(C(C)(C)C(=O)NC(C)C)c(=O)n2C[C@H](OC[C@@H](C)C#N)c1cc(F)ccc1OC [Compound I-35, ethyl 1-((R)-2-((S)-2-cyanopropoxy)-2-(5-fluoro-2-methoxyphenyl)ethyl)-3-(1-(isopropylamino)-2-methyl-1-oxopropan-2-yl)-5-methyl-2,4-dioxo-1,2,3,4-tetrahydrothieno[2,3-d]pyrimidine-6-carboxylate]
fACC2
  IC50: 0.3 to 3 nM
hACC2
  IC50: 3 to 10 nM

## CCOC(=O)c1sc2c(c1C)c(=O)n(C(C)(C)C(=O)NC(C)C)c(=O)n2C[C@H](OCCS(C)(=O)=O)c1cc(F)ccc1OC [Compound I-36, ethyl (R)-1-(2-(5-fluoro-2-methoxyphenyl)-2-(2-(methylsulfonyl)ethoxy)ethyl)-3-(1-(isopropylamino)-2-methyl-1-oxopropan-2-yl)-5-methyl-2,4-dioxo-1,2,3,4-tetrahydrothieno[2,3-d]pyrimidine-6-carboxylate]
fACC2
  IC50: 0.3 to 3 nM
hACC2
  IC50: 10 to 40 nM

## CCOC(=O)c1sc2c(c1C)c(=O)n(C(C)(C)C(=O)NC(C)C)c(=O)n2C[C@H](OCC(C)(C)C#N)c1cc(F)ccc1OC [Compound I-37, ethyl (R)-1-(2-(2-cyano-2-methylpropoxy)-2-(5-fluoro-2-methoxyphenyl)ethyl)-3-(1-(isopropylamino)-2-methyl-1-oxopropan-2-yl)-5-methyl-2,4-dioxo-1,2,3,4-tetrahydrothieno[2,3-d]pyrimidine-6-carboxylate]
fACC2
  IC50: 0.3 to 3 nM
hACC2
  IC50: 10 to 40 nM

## CCOC(=O)c1sc2c(c1C)c(=O)n(C(C)(C)C(=O)NC(C)C)c(=O)n2C[C@H](OCC(C)(C)C#N)c1ccccc1OC [Compound I-38, ethyl (R)-1-(2-(2-cyano-2-methylpropoxy)-2-(2-methoxyphenyl)ethyl)-3-(1-(isopropylamino)-2-methyl-1-oxopropan-2-yl)-5-methyl-2,4-dioxo-1,2,3,4-tetrahydrothieno[2,3-d]pyrimidine-6-carboxylate]
fACC2
  IC50: 0.3 to 3 nM
hACC2
  IC50: 10 to 40 nM

## CCNC(=O)C(C)(C)n1c(=O)c2c(C)c(C(=O)OCC)sc2n(C[C@H](O)c2cc(F)ccc2OC)c1=O [Compound I-39, ethyl (R)-3-(1-(ethylamino)-2-methyl-1-oxopropan-2-yl)-1-(2-(5-fluoro-2-methoxyphenyl)-2-hydroxyethyl)-5-methyl-2,4-dioxo-1,2,3,4-tetrahydrothieno[2,3-d]pyrimidine-6-carboxylate]
fACC2
  IC50: 0.3 to 3 nM
hACC2
  IC50: 10 to 40 nM

## CCOC(=O)c1sc2c(c1C)c(=O)n(C(C)(C)C(=O)NC(C)C)c(=O)n2CCc1cc(F)ccc1OC [Compound I-40, ethyl 1-(5-fluoro-2-methoxyphenethyl)-3-(1-(isopropylamino)-2-methyl-1-oxopropan-2-yl)-5-methyl-2,4-dioxo-1,2,3,4-tetrahydrothieno[2,3-d]pyrimidine-6-carboxylate]
fACC2
  IC50: 3 to 10 nM
hACC2
  IC50: 10 to 40 nM

## CCNC(=O)[C@@H](C)n1c(=O)c2c(C)c(C(=O)OCC)sc2n(C[C@H](OCCC#N)c2cc(F)ccc2OC)c1=O [Compound I-41, ethyl 1-((R)-2-(2-cyanoethoxy)-2-(5-fluoro-2-methoxy-phenyl)ethyl)-3-((R)-1-(ethylamino)-1-oxopropan-2-yl)-5-methyl-2,4-dioxo-1,2,3,4-tetrahydrothieno[2,3-d]pyrimidine-6-carboxylate]
fACC2
  IC50: 0.3 to 3 nM
hACC2
  IC50: 10 to 40 nM

## CCNC(=O)[C@H](C)n1c(=O)c2c(C)c(C(=O)OCC)sc2n(C[C@H](OCCC#N)c2cc(F)ccc2OC)c1=O [Compound I-42, ethyl 1-((R)-2-(2-cyanoethoxy)-2-(5-fluoro-2-methoxyphenyl)ethyl)-3-((S)-1-(ethylamino)-1-oxopropan-2-yl)-5-methyl-2,4-dioxo-1,2,3,4-tetrahydrothieno[2,3-d]pyrimidine-6-carboxylate]
fACC2
  IC50: 0.3 to 3 nM
hACC2
  IC50: 3 to 10 nM

## CCOC(=O)c1sc2c(c1C)c(=O)n([C@H](C)C(=O)NC(C)C)c(=O)n2C[C@H](O)c1cc(F)ccc1OC [Compound I-43, ethyl 1-((R)-2-(5-fluoro-2-methoxyphenyl)-2-hydroxyethyl)-3-((R)-1-(isopropylamino)-1-oxopropan-2-yl)-5-methyl-2,4-dioxo-1,2,3,4-tetrahydrothieno[2,3-d]pyrimidine-6-carboxylate]
fACC2
  IC50: 0.3 to 3 nM
hACC2
  IC50: ≥ 40 nM

## CCOC(=O)c1sc2c(c1C)c(=O)n([C@@H](C)C(=O)NC(C)C)c(=O)n2C[C@H](O)c1cc(F)ccc1OC [Compound I-44, ethyl 1-((R)-2-(5-fluoro-2-methoxyphenyl)-2-hydroxyethyl)-3-((S)-1-(isopropylamino)-1-oxopropan-2-yl)-5-methyl-2,4-dioxo-1,2,3,4-tetrahydrothieno[2,3-d]pyrimidine-6-carboxylate]
fACC2
  IC50: 10 to 40 nM
hACC2
  IC50: ≥ 40 nM
